ChEMBL document CHEMBL4396913, “Synthesis and biological evaluation of hybrid quinolone-based quaternary ammonium antibacterial agents” (Eur J Med Chem, 2019)
Values after ≈ are worked out from the molar mass of the structure shown.

Experiments:
Escherichia coli [1] = experiment: Bactericidal activity against Escherichia coli ATCC 8739 cultured in MH medium assessed as reduction in bacterial survival incubated for 48 hrs by microbroth dilution method; assay type: functional; conditions: ATCC 8739, 48 h
Staphylococcus aureus [2] = experiment: Bactericidal activity against methicillin resistant Staphylococcus aureus 6347 cultured in MH medium assessed as reduction in bacterial survival incubated for 48 hrs by microbroth dilution method; assay type: functional; conditions: Staphylococcus aureus, 6347, 48 h
[3] = test system: Staphylococcus epidermidis; experiment: Bactericidal activity against methicillin resistant Staphylococcus epidermidis ATCC 13199 cultured in MH medium assessed as reduction in bacterial survival incubated for 48 hrs by microbroth dilution method; assay type: functional; conditions: ATCC 13199, 48 h
Pseudomonas aeruginosa [4] = experiment: Bactericidal activity against Pseudomonas aeruginosa ATCC 9027 cultured in MH medium assessed as reduction in bacterial survival incubated for 48 hrs by microbroth dilution method; assay type: functional; conditions: ATCC 9027, 48 h
Proteus vulgaris [5] = experiment: Antibacterial activity against Proteus vulgaris NCTC 4635 cultured in MH medium assessed as reduction in bacterial growth incubated for 48 hrs by microbroth dilution method; assay type: functional; conditions: NCTC 4635, 48 h
[6] = test system: Staphylococcus epidermidis; experiment: Bactericidal activity against Staphylococcus epidermidis ATCC 14990 cultured in MH medium assessed as reduction in bacterial survival incubated for 48 hrs by microbroth dilution method; assay type: functional; conditions: ATCC 14990, 48 h
Staphylococcus aureus [7] = experiment: Antibacterial activity against methicillin resistant Staphylococcus aureus N315 cultured in MH medium assessed as reduction in bacterial growth incubated for 48 hrs by microbroth dilution method; assay type: functional; conditions: N315, 48 h
Staphylococcus aureus [8] = experiment: Bactericidal activity against methicillin resistant Staphylococcus aureus N315 cultured in MH medium assessed as reduction in bacterial survival incubated for 48 hrs by microbroth dilution method; assay type: functional; conditions: N315, 48 h
Streptococcus pneumoniae = experiment: Antibacterial activity against Streptococcus pneumoniae cultured in MH medium assessed as reduction in bacterial growth incubated for 48 hrs by microbroth dilution method; assay type: functional
[9] = test system: Staphylococcus epidermidis; experiment: Antibacterial activity against methicillin resistant Staphylococcus epidermidis ATCC 13199 cultured in MH medium assessed as reduction in bacterial growth incubated for 48 hrs by microbroth dilution method; assay type: functional; conditions: ATCC 13199, 48 h
Proteus vulgaris [10] = experiment: Bactericidal activity against Proteus vulgaris NCTC 4635 cultured in MH medium assessed as reduction in bacterial survival incubated for 48 hrs by microbroth dilution method; assay type: functional; conditions: NCTC 4635, 48 h
Pseudomonas aeruginosa [11] = experiment: Antibacterial activity against Pseudomonas aeruginosa ATCC 9027 cultured in MH medium assessed as reduction in bacterial growth incubated for 48 hrs by microbroth dilution method; assay type: functional; conditions: ATCC 9027, 48 h
Escherichia coli [12] = experiment: Antibacterial activity against Escherichia coli ATCC 8739 cultured in MH medium assessed as reduction in bacterial growth incubated for 48 hrs by microbroth dilution method; assay type: functional; conditions: ATCC 8739, 48 h
Bacillus spizizenii [13] = experiment: Antibacterial activity against Bacillus subtilis ATCC 6633 cultured in MH medium assessed as reduction in bacterial growth incubated for 48 hrs by microbroth dilution method; assay type: functional; conditions: ATCC 6633, 48 h
Staphylococcus aureus [14] = experiment: Antibacterial activity against Staphylococcus aureus ATCC 6538 cultured in MH medium assessed as reduction in bacterial growth incubated for 48 hrs by microbroth dilution method; assay type: functional; conditions: ATCC 6538, 48 h
[15] = Lipophilicity, log k of the compound at 100 ug/ml by micellar electrokinetic chromatography; assay type: physicochemical
Serratia marcescens [16] = experiment: Antibacterial activity against Serratia marcescens ATCC 12795 cultured in MH medium assessed as reduction in bacterial growth incubated for 48 hrs by microbroth dilution method; assay type: functional; conditions: ATCC 12795, 48 h
Bacillus spizizenii [17] = experiment: Bactericidal activity against Bacillus subtilis ATCC 6633 cultured in MH medium assessed as reduction in bacterial survival incubated for 48 hrs by microbroth dilution method; assay type: functional; conditions: ATCC 6633, 48 h
Staphylococcus aureus [18] = experiment: Bactericidal activity against Staphylococcus aureus ATCC 6538 cultured in MH medium assessed as reduction in bacterial survival incubated for 48 hrs by microbroth dilution method; assay type: functional; conditions: ATCC 6538, 48 h
Serratia marcescens [19] = experiment: Bactericidal activity against Serratia marcescens ATCC 12795 cultured in MH medium assessed as reduction in bacterial survival incubated for 48 hrs by microbroth dilution method; assay type: functional; conditions: ATCC 12795, 48 h
HEK293 [20] = experiment: Cytotoxicity against human HEK293 cells assessed as changes in cell morphology upto 20 uM incubated for 72 hrs by MTT assay; assay type: cell-based; conditions: hek293, 72 h
HEK293 [21] = experiment: Cytotoxicity against human HEK293 cells assessed as cell viability upto 20 uM incubated for 72 hrs by MTT assay; assay type: cell-based; conditions: hek293, 72 h
Staphylococcus aureus [22] = experiment: Antibacterial activity against methicillin resistant Staphylococcus aureus 6347 cultured in MH medium assessed as reduction in bacterial growth incubated for 48 hrs by microbroth dilution method; assay type: functional; conditions: Staphylococcus aureus, 6347, 48 h
Enterococcus hirae = experiment: Antibacterial activity against Enterococcus hirae ATCC 1052 cultured in BHI medium assessed as reduction in bacterial growth incubated for 48 hrs by microbroth dilution method; assay type: functional; conditions: ATCC 1052, 48 h
[23] = test system: Staphylococcus epidermidis; experiment: Antibacterial activity against Staphylococcus epidermidis ATCC 14990 cultured in MH medium assessed as reduction in bacterial growth incubated for 48 hrs by microbroth dilution method; assay type: functional; conditions: ATCC 14990, 48 h
Escherichia coli [24] = experiment: Antibacterial activity against […] Escherichia coli ATCC 8739 assessed as reduction in bacterial growth incubated for 48 hrs in presence of 50 ug/ml […], PAbetaN by microbroth dilution method; assay type: functional; conditions: ATCC 8739, 48 h
Escherichia coli [25] = experiment: Bactericidal activity against […] Escherichia coli ATCC 8739 assessed as reduction in bacterial survival incubated for 48 hrs in presence of 50 ug/ml […], PAbetaN by microbroth dilution method; assay type: functional; conditions: ATCC 8739, 48 h

| SMILES | MBC (Escherichia coli [1]) [µg/mL] | MBC (Staphylococcus aureus [2]) [µg/mL] | MBC [3] [µg/mL] | MBC (Pseudomonas aeruginosa [4]) [µg/mL] | MIC (Proteus vulgaris [5]) [µg/mL] | MBC [6] [µg/mL] | MIC (Staphylococcus aureus [7]) [µg/mL] | MBC (Staphylococcus aureus [8]) [µg/mL] | MIC (Streptococcus pneumoniae) [µg/mL] | MIC [9] [µg/mL] | MBC (Proteus vulgaris [10]) [µg/mL] | MIC (Pseudomonas aeruginosa [11]) [µg/mL] | MIC (Escherichia coli [12]) [µg/mL] | MIC (Bacillus spizizenii [13]) [µg/mL] | MIC (Staphylococcus aureus [14]) [µg/mL] | log K [15] | MIC (Serratia marcescens [16]) [µg/mL] | MBC (Bacillus spizizenii [17]) [µg/mL] | MBC (Staphylococcus aureus [18]) [µg/mL] | MBC (Serratia marcescens [19]) [µg/mL] | further results |
| --- | --- | --- | --- | --- | --- | --- | --- | --- | --- | --- | --- | --- | --- | --- | --- | --- | --- | --- | --- | --- | --- |
| CCn1cc(C(=O)O)c(=O)c2cc(F)c(N3CC[N+]4(CC3)CN3C(=N4)C(C(=O)O)=Cc4ccccc43)cc21.[Cl-] | 4 | 32 | 64 | 64 | 2 | 32 | 64 | 64 | > 512 | 64 | 2 | 64 | 4 | 16 | 64 | -0.1044 | 32 | 16 | 64 | 32 | Activity (HEK293 [20]): Non-Toxic; Activity (HEK293 [21]): Non-Toxic; MIC (Staphylococcus aureus [22]): 32 µg/mL; MIC (Enterococcus hirae): > 512 µg/mL; MIC [23]: 32 µg/mL |
| CCn1cc(C(=O)O)c(=O)c2cnc(N3CCNCC3)nc21 [PIPEMIDIC ACID] | 2 (≈ 6.59 µM) | 32 (≈ 105 µM) | 64 (≈ 211 µM) | 8 (≈ 26.4 µM) | 0.004 (≈ 0.0132 µM) | 32 (≈ 105 µM) | 32 (≈ 105 µM) | 32 (≈ 105 µM) | > 512 | 32 (≈ 105 µM) | 0.004 (≈ 0.0132 µM) | 8 (≈ 26.4 µM) | 2 (≈ 6.59 µM) | 2 (≈ 6.59 µM) | 64 (≈ 211 µM) | -0.1697 | 2 (≈ 6.59 µM) | 2 (≈ 6.59 µM) | 128 (≈ 422 µM) | 2 (≈ 6.59 µM) | MIC (Staphylococcus aureus [22]): 32 µg/mL (≈ 105 µM); MIC (Enterococcus hirae): > 512 µg/mL; MIC [23]: 32 µg/mL (≈ 105 µM) |
| CCn1cc(C(=O)O)c(=O)c2cc(F)c(N3CC[N+]4(CN5C(C)=CC(C)=C(C(=O)O)C5=N4)C(C)C3)c(F)c21.[Cl-] (stereo not given) | 8 | 128 | 32 | > 512 | 1 | 64 | 128 | 128 | > 512 | 16 | 1 | 128 | 4 | 8 | 64 | -0.4791 | 64 | 8 | 64 | 64 | MIC (Escherichia coli [24]): 2 µg/mL; MBC (Escherichia coli [25]): 4 µg/mL; Activity (HEK293 [20]): Non-Toxic; Activity (HEK293 [21]): Non-Toxic; MIC (Staphylococcus aureus [22]): 128 µg/mL; MIC (Enterococcus hirae): > 512 µg/mL; MIC [23]: 32 µg/mL |
